Measured values published in US20240376097A1, “BCL-2 Inhibitor” (BeiGene Ltd., priority 2020, published 2024).

Experiments:
[1] = tested on: RS4;11 (BCL-2 dependent acute lymphoblastic leukemia cell line); test: RS4;11 Cell Proliferation Assay; format: cell-based; settings: Homo sapiens, RS4;11 cells, read-out: Cellular proliferation assay (IC50, nM) RS4
Method in brief: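 Viability measured via CellTiter-Glo luminescence after a 48 h, 37 °C exposure to compounds (10 points, highest 1 μM). Seeding was 50,000 RS4;11 cells per well in 10% FBS RPMI-1640; IC50 given as mean.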

[2] = tested on: BCL-2 G101V knock-in cell line H96 (derive from RS4;11); test: Bcl 2-G101V Knock-In RS4;11 Cell Proliferation Assay; format: cell-based; settings: Homo sapiens, RS4-11, 48 h, RS4;11 Bcl-2 G101V knock-in clone H96, 48 hrs, CellTiter-GLO, read-out: Cellular proliferation assay (IC50, nM) RS4
Method in brief: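 CellTiter-Glo luminescence after 48 h, 37 °C compound treatment (10 concentrations, maximum 1 μM or 10 μM) gave mean IC50 values. Cells were 50,000 per well of H96, a BCL2-G101V knock-in single clone derived from RS4;11 by Cas9 editing.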

[3] = Metabolic Stability Study, liver microsome incubation (human); format: in vitro ADME; settings: human liver microsomes 0.5 mg/mL, 1 μM compound, NADPH; for half-life at 1 μM: NA^# = very stable, beyond the detection limits, read-out: T1/2 (min) Human; for microsomal CLint at 1 μM: read-out: CLint (μL × min^−1 × mg^−1) Human
Protocol: (§1) Biological Example: Metabolic Stability Study
(§2) The metabolic stability of some compounds was evaluated by using the liver microsome incubation system in vitro. Briefly, the test compounds at 1 μM, were incubated with 0.5 mg/mL liver microsomes from different species (human, dog, rat and mouse) with an NADPH regenerating system at 37° C. Samples were quenched at three time points (0, 30, 60 min) with organic solvent containing internal standards, and the supernatant was analyzed for parent loss via LC-MS/MS. Midazolam was used as the positive control to validate the incubation system.
(§3) where Cprotein is the microsomal protein concentration in the incubation system.
(§4) The value of CLint and T1/2 of Example F132b in WO2019210818 and representative compounds of the disclosure were determined, and the results are shown in Table 5.

[4] = Metabolic Stability Study, liver microsome incubation (mouse); format: in vitro ADME; settings: mouse liver microsomes 0.5 mg/mL, 1 μM compound, NADPH; for half-life at 1 μM: NA^# = very stable, beyond the detection limits, read-out: T1/2 (min) mouse; for microsomal CLint at 1 μM: read-out: CLint (μL × min^−1 × mg^−1) mouse
Protocol: as §1, §2, §3, §4

**Q.** What does the source list for COc1cc(CN2CCN(C3CC4(CCN(c5ccc(C(=O)NS(=O)(=O)c6ccc(NC[C@H]7CC[C@](C)(O)CC7)c([N+](=O)[O-])c6)c(Oc6cnc7[nH]ccc7c6)c5)CC4)C3)C(c3ccccc3C(C)C)C2)cc(OC)c1 (stereo partly shown) [Example 49]?
**A.** IC50 [1]: 0.49 nM; IC50 [2]: 2.4 nM; half-life at 1 μM [3]: 93.4 min; microsomal CLint at 1 μM [3]: 14.8 µL/min/mg; half-life at 1 μM [4]: 205 min; microsomal CLint at 1 μM [4]: 6.7 µL/min/mg

**Q.** Which results are given for COc1ccc(CN2CCN(C3CC4(CCN(c5ccc(C(=O)NS(=O)(=O)c6ccc(NC[C@H]7CC[C@](C)(O)CC7)c([N+](=O)[O-])c6)c(Oc6cnc7[nH]ccc7c6)c5)CC4)C3)C(c3ccccc3C(C)C)C2)cc1 (stereo partly shown) [Example 19, 2-((1H-pyrrolo[2,3-b]pyridin-5-yl)oxy)-N-((4-((((1r,4r)-4-hydroxy-4-methylcyclohexyl)methyl)amino)-3-nitrophenyl)sulfonyl)-4-(2-(2-(2-isopropylphenyl)-4-(4-methoxybenzyl)piperazin-1-yl)-7-azaspiro[3.5]nonan-7-yl)benzamide]?
**A.** IC50 [1]: 0.33 nM; IC50 [2]: 1.9 nM; half-life at 1 μM [3]: 1230 min; microsomal CLint at 1 μM [3]: 1.1 µL/min/mg; half-life at 1 μM [4]: 292 min; microsomal CLint at 1 μM [4]: 4.7 µL/min/mg

**Q.** For CC(C)c1ccccc1[C@@H]1CN(Cc2ccc(OC3CC3)c(OC3CC3)c2)CCN1C1CC2(C1)CN(c1ccc(C(=O)NS(=O)(=O)c3ccc(NC[C@H]4CC[C@](C)(O)CC4)c([N+](=O)[O-])c3)c(Oc3cnc4[nH]cc(F)c4c3)c1)C2 [Example 363, 4-(6-((R)-4-(3,4-dicyclopropoxybenzyl)-2-(2-isopropylphenyl)piperazin-1-yl)-2-azaspiro[3.3]heptan-2-yl)-2-((3-fluoro-1H-pyrrolo[2,3-b]pyridin-5-yl)oxy)-N-((4-((((1r,4r)-4-hydroxy-4-methylcyclohexyl)methyl)amino)-3-nitrophenyl)sulfonyl) benzamide], which IC50 [1] is on record?
**A.** 0.11 nM

**Q.** What about the IC50 [2] of the same compound?
**A.** 0.14 nM

**Q.** And the microsomal CLint at 1 μM [3]?
**A.** < 1 µL/min/mg

**Q.** And the microsomal CLint at 1 μM [4]?
**A.** < 1 µL/min/mg
